Source: patent US20240424111A1, “Degrader Compounds and Uses Thereof” (CALICO LIFE SCIENCES LLC, priority 2021, published 2024)

Tests used:
PTPN2 [1] = molecular target: T1, PTPN2 (Mus musculus, UniProt Q06180); experiment: HiBiT PTPN2 degradation in B16F10.4 cells, 24 hours; type: cell-based
T1 construct: HiBiT; host or cells: B16F10.4
T1 sequence (Q06180 1-406): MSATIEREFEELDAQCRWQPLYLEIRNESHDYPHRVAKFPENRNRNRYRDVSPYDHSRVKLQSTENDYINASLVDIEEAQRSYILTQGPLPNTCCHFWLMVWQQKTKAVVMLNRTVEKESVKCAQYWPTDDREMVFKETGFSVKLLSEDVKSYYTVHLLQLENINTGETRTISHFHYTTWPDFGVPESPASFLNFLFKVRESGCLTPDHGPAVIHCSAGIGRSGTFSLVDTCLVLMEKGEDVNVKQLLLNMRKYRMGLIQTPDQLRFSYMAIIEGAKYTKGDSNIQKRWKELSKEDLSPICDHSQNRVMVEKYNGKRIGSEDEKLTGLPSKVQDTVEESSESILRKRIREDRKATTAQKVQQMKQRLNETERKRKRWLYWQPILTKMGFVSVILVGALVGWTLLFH
How it was run: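 PTPN2 degradation was measured via luminescence from the Nano-Glo® HiBiT Lytic Assay kit. Compounds were dispensed into 384-well plates at an 11-point half-log titration in duplicate, starting at 10 μM. Cells were added at 5000 per well and held at 37° C. with 5% CO2 for 24 hours. Untreated cells were the negative control and cells without lytic reagent the positive control. Lytic reagents were then added and luminescence read on an EnVision™ Multilabel Reader.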

PTPN2 [2] = molecular target: T2, PTPN2 (Homo sapiens, UniProt P17706); experiment: HiBiT PTPN2 degradation in 293T.109 (HiBiT-PTPN2) cells, 24 hours; type: cell-based; conditions: 293T.109 cells
T2 construct: expressed in transfected cells; host or cells: 293T.109 (HiBiT-PTPN2), derived from 293T WT (ATCC)
T2 sequence (P17706 1-415): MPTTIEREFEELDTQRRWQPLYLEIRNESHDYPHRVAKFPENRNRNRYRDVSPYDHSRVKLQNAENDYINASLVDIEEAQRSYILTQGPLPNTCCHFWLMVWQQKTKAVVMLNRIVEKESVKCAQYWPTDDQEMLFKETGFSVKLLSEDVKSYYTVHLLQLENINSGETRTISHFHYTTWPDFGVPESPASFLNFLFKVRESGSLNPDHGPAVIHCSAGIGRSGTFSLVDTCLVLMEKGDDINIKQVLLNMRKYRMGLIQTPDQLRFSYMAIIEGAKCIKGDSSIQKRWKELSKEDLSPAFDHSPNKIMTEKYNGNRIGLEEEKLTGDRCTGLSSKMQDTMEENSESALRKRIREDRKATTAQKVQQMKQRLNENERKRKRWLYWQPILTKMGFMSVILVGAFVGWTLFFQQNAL
How it was run: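 293T cells stably expressing N-terminal HiBiT-tagged PTPN2 were treated for 24 h at 37 °C with compound in an 11-point half-log series from 10 μM top concentration, in duplicate. Remaining HiBiT-PTPN2 was measured by lytic luminescence, with untreated cells as the negative control and wells without lytic reagent as the positive control.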

DC50 (PTPN2 [1])	DC50 (PTPN2 [2])	Compound
< 50 nM	150 to 500 nM	Cn1c(=O)n(C2CCC(=O)NC2=O)c2ccc(-c3ccc([C@H](CO)C(=O)Nc4ccc5c(F)c(N6CC(=O)NS6(=O)=O)c(O)cc5c4)cc3)cc21 (stereo partly shown) [Degrader 137]
< 50 nM	< 50 nM	Cn1c(=O)n(C2CCC(=O)NC2=O)c2ccc(-c3ccc([C@@H](CO)C(=O)Nc4ccc5c(F)c(N6CC(=O)NS6(=O)=O)c(O)cc5c4)cc3)cc21 (stereo partly shown) [Degrader 138]
≥ 500 nM	150 to 500 nM	Cn1c(=O)n(C2CCC(=O)NC2=O)c2ccc(N3CCN(CC(=O)Nc4ccc5c(F)c(N6CC(=O)NS6(=O)=O)c(O)cc5c4)C(=O)C3)cc21 (stereo not shown) [Degrader 139]
150 to 500 nM	50 to 150 nM	Cn1c(=O)n(C2CCC(=O)NC2=O)c2ccc(C3CN(CC(=O)Nc4ccc5c(F)c(N6CC(=O)NS6(=O)=O)c(O)cc5c4)CCC3F)cc21 (stereo not shown) [Degrader 140]
50 to 150 nM	< 50 nM	Cn1c(=O)n(C2CCC(=O)NC2=O)c2ccc([C@@H]3CN(CC(=O)Nc4ccc5c(F)c(N6CC(=O)NS6(=O)=O)c(O)cc5c4)CC[C@H]3F)cc21 (stereo partly shown) [Degrader 141]
150 to 500 nM	150 to 500 nM	Cn1c(=O)n(C2CCC(=O)NC2=O)c2ccc([C@H]3CN(CC(=O)Nc4ccc5c(F)c(N6CC(=O)NS6(=O)=O)c(O)cc5c4)CC[C@@H]3F)cc21 (stereo partly shown) [Degrader 142]
< 50 nM	50 to 150 nM	O=C1CCC(N2C(=O)c3cccc4c(N5CCC(CC(=O)Nc6ccc7c(F)c(N8CC(=O)NS8(=O)=O)c(O)cc7c6)CC5)ccc2c34)C(=O)N1 (stereo not shown) [Degrader 143]
50 to 150 nM	< 50 nM	Cn1c(=O)n(C2CCC(=O)NC2=O)c2ccc(N3CCC(CCNC(=O)Nc4ccc5c(F)c(N6CC(=O)NS6(=O)=O)c(O)cc5c4)CC3)c(F)c21 (stereo not shown) [Degrader 144]
≥ 500 nM	≥ 500 nM	Cn1c(=O)n(C2CCC(=O)NC2=O)c2ccc3c(c21)CCCN3CCCC(=O)Nc1ccc2c(F)c(N3CC(=O)NS3(=O)=O)c(O)cc2c1 (stereo not shown) [Degrader 145]
50 to 150 nM	< 50 nM	Cn1c(=O)n(C2CCC(=O)NC2=O)c2ccc3c(c21)CCCN3CCCCC(=O)Nc1ccc2c(F)c(N3CC(=O)NS3(=O)=O)c(O)cc2c1 (stereo not shown) [Degrader 146]
150 to 500 nM	150 to 500 nM	Cn1c(=O)n(C2CCC(=O)NC2=O)c2ccc(N3CCC(CC(=O)Nc4ccc5c(F)c(N6CC(=O)NS6(=O)=O)c(O)cc5c4)CC3)cc21 (stereo not shown) [Degrader 147]
150 to 500 nM	50 to 150 nM	C[C@@H]1CN(CC(=O)Nc2ccc3c(F)c(N4CC(=O)NS4(=O)=O)c(O)cc3c2)CCN1c1ccc2c(c1F)n(C)c(=O)n2C1CCC(=O)NC1=O (stereo partly shown) [Degrader 148]
150 to 500 nM	150 to 500 nM	Cn1c(=O)n(C2CCC(=O)NC2=O)c2ccc(-c3ccn(CC(=O)Nc4ccc5c(F)c(N6CC(=O)NS6(=O)=O)c(O)cc5c4)n3)cc21 (stereo not shown) [Degrader 149]
150 to 500 nM	150 to 500 nM	C[C@@H]1CN(CC(=O)Nc2ccc3c(F)c(N4CC(=O)NS4(=O)=O)c(O)cc3c2)CCN1c1cc2c(cc1F)n(C1CCC(=O)NC1=O)c(=O)n2C (stereo partly shown) [Degrader 150]
150 to 500 nM	150 to 500 nM	Cn1c(=O)n(C2CCC(=O)NC2=O)c2ccc([C@H]3CCCN(CC(=O)Nc4ccc5c(F)c(N6CC(=O)NS6(=O)=O)c(O)cc5c4)C3)cc21 (stereo partly shown) [Degrader 151]
150 to 500 nM	50 to 150 nM	Cn1c(=O)n(C2CCC(=O)NC2=O)c2ccc([C@@H]3CCCN(CC(=O)Nc4ccc5c(F)c(N6CC(=O)NS6(=O)=O)c(O)cc5c4)C3)cc21 (stereo partly shown) [Degrader 152]
50 to 150 nM	150 to 500 nM	Cn1c(=O)n(C2CCC(=O)NC2=O)c2ccc(-n3cc(CC(=O)Nc4ccc5c(F)c(N6CC(=O)NS6(=O)=O)c(O)cc5c4)cn3)cc21 (stereo not shown) [Degrader 153]
150 to 500 nM	150 to 500 nM	O=C1CCC(N2CCc3cc(C4CCN(CC(=O)N5CCC(c6ccc7cc(O)c(N8CC(=O)NS8(=O)=O)c(F)c7c6)CC5)CC4)ccc32)C(=O)N1 (stereo not shown) [Degrader 154]
50 to 150 nM	150 to 500 nM	O=C1CCC(N2C(=O)c3cccc4c(-c5ccc(CC(=O)Nc6ccc7c(F)c(N8CC(=O)NS8(=O)=O)c(O)cc7c6)cc5)ccc2c34)C(=O)N1 (stereo not shown) [Degrader 155]
50 to 150 nM	50 to 150 nM	Cn1c(=O)n(C2CCC(=O)NC2=O)c2ccc(C3=CCC(CC(=O)Nc4ccc5c(F)c(N6CC(=O)NS6(=O)=O)c(O)cc5c4)CC3)cc21 (stereo not shown) [Degrader 157]
